Experimental data from patent publication US20240366624A1, “METHODS AND COMPOSITIONS FOR TREATING THROMBOTIC DISEASE” (Washington University, priority 2023, published 2024).

What was measured:
[1] = thiol-reacting (GSH) activity assay; assay type: biochemical; settings: 100 μM
Source text: (§1) FIG. 17(A-F) is an exemplary embodiment of identification of novel ERO1α inhibitors by high throughput screening in accordance with the present disclosure. FIG. 17A: A scheme of an ERO1α activity assay. FIG. 17B: Screening of chemical libraries in the ERO1α activity assay. FIG. 17C: The inhibitory effect of selected compounds on ERO1α activity. FIG. 17D: The inhibitory effect of selected compounds on PDI activity. FIG. 17E: The inhibitory effect of selected compounds on H2O2 activity. FIG. 17F: The inhibitory effect of selected compounds on thiol-reacting activity. The data represent the mean±SD (n=3). *P<0.05, **P<0.01, ***P<0.001, and ****P<0.0001 vs. vehicle control, Student's t-test.
(§2) To identify a novel ERO1α inhibitor, 5800 compounds were screened using an ERO1α activity assay (FIG. 17A and FIG. 17B). […] The selected compounds were further tested in assays measuring PDI, antioxidant, and thiol-reacting activities (FIG. 17D through FIG. 17F). […] B12 inhibited P-selectin exposure and αIIbβ3 activation in agonist-activated mouse and human platelets in a concentration-dependent manner (FIG. 18B through FIG. 18E).

[2] = H2O2 (antioxidant) activity assay; assay type: biochemical; settings: 100 μM
Source text: as §1, §2

[3] = target: T1, MAO-A (monoamine oxidase A) (Homo sapiens, UniProt P21397); assay: MAO-A activity assay; assay type: biochemical; settings: 100 μM
T1 sequence (P21397 1-527): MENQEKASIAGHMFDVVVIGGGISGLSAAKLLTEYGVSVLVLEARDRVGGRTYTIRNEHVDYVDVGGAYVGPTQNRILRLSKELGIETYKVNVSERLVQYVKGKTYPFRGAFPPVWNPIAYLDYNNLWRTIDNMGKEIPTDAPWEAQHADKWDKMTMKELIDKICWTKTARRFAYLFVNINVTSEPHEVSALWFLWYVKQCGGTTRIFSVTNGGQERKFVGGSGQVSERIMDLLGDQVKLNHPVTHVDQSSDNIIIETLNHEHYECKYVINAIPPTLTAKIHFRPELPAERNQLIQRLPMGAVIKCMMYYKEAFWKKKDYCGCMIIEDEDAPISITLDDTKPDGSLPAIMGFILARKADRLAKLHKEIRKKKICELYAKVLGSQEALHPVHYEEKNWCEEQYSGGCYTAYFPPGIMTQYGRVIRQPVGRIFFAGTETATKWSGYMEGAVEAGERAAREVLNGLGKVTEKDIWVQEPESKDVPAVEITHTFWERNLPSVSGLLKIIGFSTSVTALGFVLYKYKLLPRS

PDI = PDI (Homo sapiens, UniProt P07237); assay: PDI activity assay; assay type: biochemical; settings: 100 μM
Sequence of PDI (P07237 18-508, species assumed): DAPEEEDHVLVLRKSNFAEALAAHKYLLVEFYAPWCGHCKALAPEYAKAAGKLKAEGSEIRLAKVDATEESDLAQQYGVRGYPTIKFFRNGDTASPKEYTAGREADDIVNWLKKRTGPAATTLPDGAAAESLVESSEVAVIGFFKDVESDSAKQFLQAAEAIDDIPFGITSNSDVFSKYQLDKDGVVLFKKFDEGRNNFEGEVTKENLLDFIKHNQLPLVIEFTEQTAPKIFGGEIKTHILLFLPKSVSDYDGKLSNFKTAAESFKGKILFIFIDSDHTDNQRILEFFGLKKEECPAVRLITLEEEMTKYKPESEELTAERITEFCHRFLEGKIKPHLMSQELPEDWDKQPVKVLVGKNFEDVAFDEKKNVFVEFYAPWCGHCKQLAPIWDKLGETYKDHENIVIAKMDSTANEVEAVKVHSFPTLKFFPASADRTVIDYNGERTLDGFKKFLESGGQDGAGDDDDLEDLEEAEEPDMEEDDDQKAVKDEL
Source text: as §1, §2

ERO1α = target: T2, ERO1α (Homo sapiens, UniProt Q96HE7); assay: ERO1α activity assay; assay type: biochemical; settings: 20 μM
T2 sequence (Q96HE7 24-468): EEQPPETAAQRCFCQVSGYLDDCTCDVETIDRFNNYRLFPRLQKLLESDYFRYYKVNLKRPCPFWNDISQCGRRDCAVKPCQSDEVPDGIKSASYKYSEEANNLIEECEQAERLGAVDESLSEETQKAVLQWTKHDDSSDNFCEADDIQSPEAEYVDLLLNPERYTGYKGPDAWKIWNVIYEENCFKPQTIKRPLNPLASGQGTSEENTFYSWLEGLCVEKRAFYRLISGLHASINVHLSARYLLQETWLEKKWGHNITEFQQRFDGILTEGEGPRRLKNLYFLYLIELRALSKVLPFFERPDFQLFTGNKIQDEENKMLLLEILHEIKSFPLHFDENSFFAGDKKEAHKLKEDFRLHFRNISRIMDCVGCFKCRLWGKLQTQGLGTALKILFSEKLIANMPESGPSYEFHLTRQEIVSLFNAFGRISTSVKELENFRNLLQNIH
Source text: as §1, §2

Ero1α-null platelets = assay: Platelet aggregation, Ero1α-null platelets; assay type: cell-based, mouse; settings: 50 μg/mL protein, 0.025 U/mL thrombin
Description: FIG. 7(A-L) is an exemplary embodiment of crucial intracellular ERO1α (endoplasmic reticulum oxidoreductase 1a) for platelet activation, aggregation, and thrombus formation in accordance with the present disclosure. FIG. 7A: Ex vivo platelet thrombus formation in a flow chamber assay. Adherent and aggregated platelets were stained with rhodamine-conjugated phalloidin and imaged by confocal microscopy. Representative images (bar, 10 μm). Surface coverage and thrombus volume were measured (mean±SD, n=4). FIG. 7(B-E): Aggregation and ATP secretion of wild type (WT) and Ero1α-null platelets were induced by 0.025 U/mL thrombin, 0.05 μg/mL CRP (collagen-related peptide), 0.5 μM A23187, or 2.5 μM ADP. Platelet aggregation (i) and ATP secretion (ii). FIG. 7F: Ero1α-null platelets were pretreated with 50 μg/mL wtERO1α or wtPDI and then with 0.025 U/mL thrombin. Quantification graphs of aggregation and ATP secretion are presented as the mean±SD (n=3-4). FIG. 7G and FIG. 7H: P-selectin exposure and αIIbβ3 integrin activation of WT and Ero1α-null platelets were analyzed by flow cytometry. The data are presented as the geometric mean fluorescence intensity (MFI) value (mean±SD, n=3-4). FIG. 7I: WT and Ero1α-null platelets were treated with or without 0.025 U/mL thrombin for 1 minute in an aggregometer. The lysates were immunoprecipitated with control IgG or anti-β3 antibodies and subjected to immunoblotting with antibodies against talin1 or β3 and densitometric analysis (mean±SD, n=3). FIG. 7J: WT and Ero1α-null platelets were treated with or without 0.025 U/mL thrombin, followed by transmission electron microscopy. The original magnification was 34 800, and the extension was 313 000. Bar, 500 nm. FIG. 7K and FIG. 7L: Intravital microscopy was performed to determine the effect of 15E9 (1-3 μg/g body weight [BW]) and a blocking anti-PDI (protein disulfide isomerase) antibody (BD34, 3 μg/g BW) on platelet thrombus formation and fibrin generation at the site of laser-induced cremaster arteriolar injury (n=27-40 arterioles in 6 mice per group). The n indicates biological replicates. P values determined by unpaired Student t test (FIG. 7(A-E) and FIG. 7(G-1)), ANOVA and Dunnett test (FIG. 7F), or Mann-Whitney U test (FIG. 7K and FIG. 7L).
FIG. 9(A-C) is an exemplary embodiment of EN460 inhibiting thrombin-induced aggregation of mouse and human platelets in accordance with the present disclosure. […] P values determined by ANOVA and Dunnett's test (FIG. 9(A-B)) or Student's t-test (FIG. 9C).
FIG. 10(A-E) is an exemplary embodiment of 15E9 not affecting platelet activation and aggregation in accordance with the present disclosure. […] P values determined by unpaired Student's t-test (vs. mIgG1). […]

Compound | GSH inhibition at 100 μM (%) [1] | H2O2 inhibition at 100 μM (%) [2] | MAO-A inhibition at 100 μM (%) [3] | PDI inhibition at 100 μM (%) (PDI) | ERO1α inhibition at 20 μM (%) (ERO1α) | rescue of the defect in Ero1α-null platelet aggregation (Ero1α-null platelets)
Cc1cc(O)nc(SCC(=O)N2c3ccccc3Sc3ccccc32)n1 [B12-20] | 10.2 ± 2% | 2.3 ± 1% | 50.2 ± 7% | 6.7 ± 2% | 82.3 ± 15% | 
CCCn1c(SCC(=O)N2c3ccccc3Sc3ccccc32)nc2ccccc21 [B12-7] | 33.3 ± 10% | 1.9 ± 1% | 39.1 ± 8% | 30.3 ± 8% | 75.5 ± 20% | 
N#Cc1cc(SCC(=O)N2c3ccccc3Sc3ccccc32)nc2c1CCCC2 [B12-6] | 30.1 ± 10% | 1.7 ± 1% | 37.7 ± 8% | 20.2 ± 4% | 87.6 ± 17% | 
Cc1nc2ccccc2nc1SCC(=O)N1c2ccccc2Sc2ccccc21 [B12-11] | 33.5 ± 4% | 2.3 ± 1% | 28.1 ± 5% | 23.1 ± 5% | 82.3 ± 20% | 
O=C(COc1nc2ccccc2s1)n1c2ccccc2c2ccccc21 [B12-8*] | 13.6 ± 3% | 0.3 ± 0.1% | 22.3 ± 5% | 8.6 ± 3% | 48.6 ± 10% | 
COc1ccc2nc(SCC(=O)n3c4ccccc4c4ccccc43)nc(C)c2c1 [B12-13*] | 33.1 ± 4% | 4.2 ± 1% | 36.7 ± 8% | 19.1 ± 4% | 53.7 ± 9% | 
COc1cc(O)nc(SCC(=O)N2c3ccccc3Sc3ccccc32)n1 [B12-18] | 25.9 ± 5% | 0.2 ± 0.1% | 37.5 ± 7% | 12.4 ± 5% | 83.9 ± 16% | 
CCCn1c2ccccc2c2nnc(SCC(=O)N3c4ccccc4Sc4ccccc43)nc21 [B12-14] | 31.9 ± 5% | 3.4 ± 1% | 28.3 ± 5% | 21.4 ± 6% | 59.0 ± 6% | 
CCCc1cc(O)nc(SCC(=O)N2c3ccccc3Sc3ccccc32)n1 [B12-16] | 21.9 ± 6% | 80.0 ± 18% | 34.3 ± 6% | 11.9 ± 3% | 11.5 ± 3% | 
O=C(COc1ccc(O)cc1)N1c2ccccc2Sc2ccccc21 [B12-4] | 27.2 ± 7% | 6.0 ± 2% | 34.8 ± 4% | 13.2 ± 3% | 74.0 ± 17% | 
O=C(COc1ccccc1)N1c2ccccc2Sc2ccccc21 [B12-3] | 22.3 ± 7% | 2.1 ± 1% | 24.8 ± 4% | 10.2 ± 3% | 57.0 ± 19% | 
wtPDI: recombinant wild-type PDI |  |  |  |  |  | did not rescue
O=C(COc1nc2ccccc2s1)N1c2ccccc2Sc2ccccc21 [B12-22] | 62.5 ± 7% | 4.9 ± 1% | 28.8 ± 6% | 38.5 ± 8% | 60.5 ± 8% | 
